Here are results for 15 compounds from patent US11498920B2, “4-(1H-imidazol-5-yl)-1H-pyrrolo[2, 3-b] pyridines for use in the treatment of leukaemias, lymphomas and solid tumors” (MASARYKOVA UNIVERZITA, priority 2018, dated 2022).

Series [1] in a line: Pharmacokinetic study, oral dosing, plasma concentration by LC-MS/MS (Example II.5). It counts as in vivo. To be noted: mouse, male Balb/c mice, oral 20 mg/kg as dihydrochloride in saline, free base quantified, below LLOQ designated zero; for concentration at 15 min: read-out: conc. at 15 min; for concentration at 30 min: read-out: conc. at 30 min; for concentration at 60 min: read-out: conc. at 60 min; for concentration at 120 min: read-out: conc. at 120 min; for concentration at 240 min: read-out: conc. at 240 min; for concentration at 600 min: read-out: conc. at 600 min. Here is the method: Male Balb/c mice (10-12 weeks old, body weight 24.1 to 30.8 g and average body weight across all groups 26.8 g, SD=1.7 g) were used in this study. The animals were randomly assigned to the treatment groups before the pharmacokinetic study; all animals were fasted for 4 h before dosing. The time points indicated in Table 4 were set for this pharmacokinetic study. Each of the time point treatment group included 4 animals. There was also control group of 2 animals. The compounds were dosed orally as the corresponding dihydrochlorides dissolved in physiological saline (c=3-4 mg/mL) at the dose of 20 mg/kg.
Mice were injected IP with 2,2,2-tribromoethanol at the dose of 150 mg/kg prior to drawing the blood. Blood collection was performed from the orbital sinus in microtainers containing K2EDTA. Animals were sacrificed by cervical dislocation after the blood samples collection. All samples were immediately processed, flash-frozen and stored at −70° C. until subsequent analysis.
Plasma samples (50 μL) were mixed with 200 μL of internal standard solution. After mixing by pipetting and centrifuging for 4 min at 6,000 rpm, 0.5 μL of each supernatant was injected into LC-MS/MS system.
The analyzed compound (as a dihydrochloride salt) was dissolved in DMSO, and the resulting solution with concentration of 2 mg/mL was used for calibration standards preparation (stock solution). A series of calibration standards was prepared by consecutively dilution of stock compound solution with blank mouse plasma to a final concentration of 40 000, 20 000, 10 000, 5 000, 2 500, 1000, 500, 250, 100, 50, and 20 ng/mL. Standard plasma samples (50 μL) were mixed with 200 μL of internal standard. After mixing by pipetting and centrifuging for 4 min at 6,000 rpm, 0.5 μL of each supernatant was injected into LC-MS/MS system. Signal corresponding to the free base was analyzed and quantified (Table 4).
The regression analysis of the analyzed compound was performed by plotting the peak area ratio (y-axis) against the compound concentration in calibration standards (x-axis, ng/mL).
The concentrations of the analyzed compound in plasma samples below the lower limit of quantitation (LLOQ—5 ng/mL to 20 ng/mL) were designated as zero.

The next series concerns primary CLL cells. The series can be described thus: Cytotoxicity, TMRE flow cytometry viability, primary CLL cells (Example II.1). It counts as cell-based. To be noted: Homo sapiens, CLL cell, 6 hours, TMRE positive cells normalized to control, ratio to PF670462, <1 = higher cytotoxicity than PF670462, read-out: Viability of cells, Compound of formula I (100 μM), relative to PF670462 (100 μM), CLL primary cells. On the technique in general: Flow cytometry measures light scatter and fluorescence of single cells or particles in a stream.

Series [2] deals with Maver-1 cells (mantle cell lymphoma). Briefly: Cytotoxicity, TMRE flow cytometry viability, Maver-1 cells (Example II.1). It counts as cell-based. To be noted: Homo sapiens, Maver1, 24 hours, TMRE positive cells normalized to control, ratio to PF670462, <1 = higher cytotoxicity than PF670462, read-out: Viability of cells, Compound of formula I (100 μM), relative to PF670462 (100 μM), Maver-1 cells (mantle cell lymphoma).

Take `Fc1ccc(-c2ncn(Cc3cccnc3)c2-c2ccnc3[nH]ccc23)cc1` [Preparative Example 82, 4-(4-(4-fluorophenyl)-1-(pyridin-3-ylmethyl)-1H-imidazol-5-yl)-1H-pyrrolo[2,3-b]pyridine]: in series [1], the concentration at 15 min came out at 1.37 µM, the concentration at 30 min came to 0.26 µM, the concentration at 60 min amounted to 0.09 µM and the concentration at 120 min was found to be 0.04 µM. In series [1], the concentration at 240 min came to 0.02 µM and the concentration at 600 min was 0 µM. In addition, in the series with primary CLL cells, the viability (as a rule, a read-out of living cells in per cent, often relative to untreated cells) at 100 µM turned out to be 80%.

Take `Cn1cnc(Cn2cnc(-c3ccc(F)cc3)c2-c2ccnc3[nH]ccc23)c1` [Preparative Example 92, 4-(4-(4-fluorophenyl)-1-((1-methyl-1H-imidazol-4-yl)methyl)-1H-imidazol-5-yl)-1H-pyrrolo[2,3-b]pyridine]: the viability at 100 µM in series [2] stood at 81%. For the same compound, in series [1], the concentration at 15 min was 9.52 µM, the concentration at 30 min is 6.63 µM, the concentration at 60 min was 4.52 µM and the concentration at 120 min came out at 0.79 µM. In series [1], the concentration at 240 min turned out to be 0.05 µM and the concentration at 600 min worked out at 0 µM.

As for `Cn1ccc(Cn2cnc(-c3ccc(F)cc3)c2-c2ccnc3[nH]ccc23)n1` [Preparative Example 94], the viability at 100 µM in series [2] worked out at 81%. In addition, in series [1], the concentration at 15 min was 0.44 µM, the concentration at 30 min turned out to be 0.21 µM, the concentration at 60 min was 0.18 µM and the concentration at 120 min stood at 0.07 µM. Also, in series [1], the concentration at 240 min was determined as 0 µM and the concentration at 600 min is 0 µM.

As to `CN1CCC(Cn2cnc(-c3ccc(F)cc3)c2-c2ccnc3[nH]ccc23)CC1` [Preparative Example 102, 4-(4-(4-fluorophenyl)-1-((1-methylpiperidin-4-yl)methyl)-1H-imidazol-5-yl)-1H-pyrrolo[2,3-b]pyridine], the viability at 100 µM in series [2] was 69%. Moreover, in series [1], the concentration at 15 min came out at 0.62 µM, the concentration at 30 min stood at 0.72 µM, the concentration at 60 min came to 0.4 µM and the concentration at 120 min was 0.53 µM. Moreover, in series [1], the concentration at 240 min was 0.48 µM and the concentration at 600 min was 0 µM. In the series on primary CLL cells, the viability at 100 µM was determined as 68%.

In the case of `Fc1ccc(-c2ncn(Cc3cocn3)c2-c2ccnc3[nH]ccc23)cc1` [Preparative Example 103, 4-((4-(4-fluorophenyl)-5-(1H-pyrrolo[2,3-b]pyridin-4-yl)-1H-imidazol-1-yl)methyl)oxazole], in series [1], the concentration at 15 min came out at 2.17 µM, the concentration at 30 min stood at 0.58 µM, the concentration at 60 min was 0.13 µM and the concentration at 120 min is 0.08 µM. Also, in series [1], the concentration at 240 min is 0.04 µM and the concentration at 600 min was 0 µM.

In the case of `Cc1nnc(Cn2cnc(-c3ccc(F)cc3)c2-c2ccnc3[nH]ccc23)[nH]1` [Preparative Example 107, 4-(4-(4-fluorophenyl)-1-((5-methyl-4H-1,2,4-triazol-3-yl)methyl)-1H-imidazol-5-yl)-1H-pyrrolo[2,3-b]pyridine], in series [1], the concentration at 15 min stood at 4.78 µM, the concentration at 30 min amounted to 2.42 µM, the concentration at 60 min amounted to 2.3 µM and the concentration at 120 min worked out at 0.43 µM. For the same compound, in series [1], the concentration at 240 min amounted to 0.24 µM and the concentration at 600 min was found to be 0 µM.

In the case of `Cn1cc(Cn2cnc(-c3ccc(F)cc3)c2-c2ccnc3[nH]ccc23)nn1` [Preparative Example 113, 4-(4-(4-fluorophenyl)-1-((1-methyl-1H-1,2,3-triazol-4-yl)methyl)-1H-imidazol-5-yl)-1H-pyrrolo[2,3-b]pyridine], in series [1], the concentration at 15 min came to 8.01 µM, the concentration at 30 min was 3.53 µM, the concentration at 60 min was 1.03 µM and the concentration at 120 min was found to be 1.12 µM. In series [1], the concentration at 240 min was determined as 0.25 µM and the concentration at 600 min worked out at 0 µM.

Take `Cn1ccnc1Cn1cnc(-c2ccc(F)cc2)c1-c1ccnc2[nH]ccc12` [Preparative Example 122, 4-(4-(4-fluorophenyl)-1-((1-methyl-1H-imidazol-2-yl)methyl)-1H-imidazol-5-yl)-1H-pyrrolo[2,3-b]pyridine]: in series [1], the concentration at 15 min was 2.73 µM, the concentration at 30 min turned out to be 0.73 µM, the concentration at 60 min was found to be 0.3 µM and the concentration at 120 min worked out at 0.16 µM. In series [1], the concentration at 240 min was found to be 0.04 µM and the concentration at 600 min came out at 0 µM.

As for `CN(C)[C@H]1C[C@@H](n2cnc(-c3ccc(F)cc3)c2-c2ccnc3[nH]ccc23)C1` [Preparative Example 123, (1R,3s)-3-(4-(4-fluorophenyl)-5-(1H-pyrrolo[2,3-b]pyridin-4-yl)-1H-imidazol-1-yl)-N,N-dimethylcyclobutan-1-amine], the viability at 100 µM in series [2] is 78%. Also, in series [1], the concentration at 15 min is 1.35 µM, the concentration at 30 min worked out at 0.92 µM, the concentration at 60 min is 0.52 µM and the concentration at 120 min is 0.13 µM. For the same compound, in series [1], the concentration at 240 min is 0 µM and the concentration at 600 min was found to be 0 µM. Further, in the series with primary CLL cells, the viability at 100 µM amounted to 58%.

As for `CN1CCC(F)(Cn2cnc(-c3ccc(F)cc3)c2-c2ccnc3[nH]ccc23)CC1` [Preparative Example 126, 4-(1-((4-fluoro-1-methylpiperidin-4-yl)methyl)-4-(4-fluorophenyl)-1H-imidazol-5-yl)-1H-pyrrolo[2,3-b]pyridine], in series [2], the viability at 100 µM came out at 71%. Besides, in series [1], the concentration at 15 min stood at 2.38 µM, the concentration at 30 min worked out at 1.83 µM, the concentration at 60 min amounted to 0.84 µM and the concentration at 120 min worked out at 0.76 µM. Besides, in series [1], the concentration at 240 min is 0.38 µM and the concentration at 600 min stood at 0 µM. Moreover, in the series on primary CLL cells, the viability at 100 µM stood at 64%.

Consider `Cn1nnc(Cn2cnc(-c3ccc(F)cc3)c2-c2ccnc3[nH]ccc23)n1` [Preparative Example 151], for which, in series [1], the concentration at 15 min came to 18.9 µM, the concentration at 30 min is 7.24 µM, the concentration at 60 min worked out at 3.98 µM and the concentration at 120 min came to 0.77 µM. For the same compound, in series [1], the concentration at 240 min came out at 0.41 µM and the concentration at 600 min is 0 µM.

`Fc1ccc(-c2ncn(Cc3nc[nH]n3)c2-c2ccnc3[nH]ccc23)cc1` [Preparative Example 154, 4-(1-((1H-1,2,4-triazol-3-yl)methyl)-4-(4-fluorophenyl)-1H-imidazol-5-yl)-1H-pyrrolo[2,3-b]pyridine]: in series [1], the concentration at 15 min came out at 13.9 µM, the concentration at 30 min is 8.76 µM, the concentration at 60 min was 7.86 µM and the concentration at 120 min is 2.45 µM. In addition, in series [1], the concentration at 240 min was 0.52 µM and the concentration at 600 min is 0 µM.

As for `CN(C)Cc1nc(-c2ccc(F)cc2)c(-c2ccnc3[nH]ccc23)n1C1CCCCC1` [Preparative Example 169, 1-(1-cyclohexyl-4-(4-fluorophenyl)-5-(1H-pyrrolo[2,3-b]pyridin-4-yl)-1H-imidazol-2-yl)-N,N-dimethylmethanamine], the viability at 100 µM in series [2] came to 0%; with primary CLL cells it was 12%.

On to `Nc1cc(-c2c(-c3ccc(F)cc3)ncn2C2CCCCC2)c2cc[nH]c2n1` [Preparative Example 170, 4-(1-cyclohexyl-4-(4-fluorophenyl)-1H-imidazol-5-yl)-1H-pyrrolo[2,3-b]pyridin-6-amine], for which the values for the viability at 100 µM (in series [2]; in the series on primary CLL cells) were 6% and 56%, respectively.

As to `Fc1ccc(-c2ncn(Cc3ccccc3)c2-c2ccnc3[nH]ccc23)cc1F` [Preparative Example 179, 4-(1-benzyl-4-(3,4-difluorophenyl)-1H-imidazol-5-yl)-1H-pyrrolo[2,3-b]pyridine], the viability at 100 µM in series [2] turned out to be 0%; with primary CLL cells, 1%.
